Source: patent US4450269A, “Mono-5-substituted-3-chloro-4H-1,2,6-thiadiazin-4-one antifungal agents” (FMC Corporation, priority 1980, dated 1984)

Experiments:
Test in all cases: Spore germination test
Format in all cases: cell-based
Erysiphe polygoni = conditions: EP, 48 hours
Method in brief: (§1)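 Compound was delivered in acetone into water agar at final 40, 10, 2.5 and 1 ppm. Alternaria solani and Botrytis cinerea spores were applied as sterile-water suspensions, while Erysiphe polygoni and Uromyces phaseoli spores were brushed on from infected leaves. After 48 h at 24° C., percentage germination was converted to a rating.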

Uromyces phaseoli = conditions: UP, 48 hours
Method in brief: as §1

Botrytis cinerea = conditions: BC, 48 hours
Method in brief: as §1

Row | SMILES | Spore Germination Rating (Erysiphe polygoni; 1.0 ppm) | Spore Germination Rating (Erysiphe polygoni; 2.5 ppm) | Spore Germination Rating (Erysiphe polygoni; 10 ppm) | Spore Germination Rating (Erysiphe polygoni; 40 ppm) | Spore Germination Rating (Uromyces phaseoli; 1.0 ppm) | Spore Germination Rating (Uromyces phaseoli; 2.5 ppm) | Spore Germination Rating (Uromyces phaseoli; 10 ppm) | Spore Germination Rating (Uromyces phaseoli; 40 ppm) | Spore Germination Rating (Botrytis cinerea; 1.0 ppm) | Spore Germination Rating (Botrytis cinerea; 2.5 ppm) | Spore Germination Rating (Botrytis cinerea; 10 ppm) | Spore Germination Rating (Botrytis cinerea; 40 ppm)
1 | O=C(Nc1ccccc1)Nc1ccc(Oc2nsnc(Cl)c2=O)cc1 [Compound 29, 3-chloro-5-[4-(3-phenylureido)-phenoxy]-4H--1,2,6-thiadiazin-4-one] | 4 (80-100) | 4 (80-100) | 4 (80-100) | 1 (10-40) | 4 (80-100) | 2 (40-60) | 2 (40-60) | 0 (0-10) | 3 (60-80) | 3 (60-80) | 2 (40-60) | 2 (40-60)
2 | Cc1cccc(C)c1Oc1nsnc(Cl)c1=O [Compound 24, 3-chloro-5-(2,6-dimethylphenoxy)-4H--1,2,6-thiadiazin-4-one] | 3 (60-80) | 1 (10-40) | 0 (0-10) | 0 (0-10) | 1 (10-40) | 0 (0-10) | 0 (0-10) | 0 (0-10) | 3 (60-80) | 1 (10-40) | 0 (0-10) | 0 (0-10)
3 | O=C(O)c1ccc(Oc2nsnc(Cl)c2=O)cc1 [Compound 50, 3-(4-carboxyphenoxy)-5-chloro-4H--1,2,6-thiadiazin-4-one] | 4 (80-100) | 4 (80-100) | 4 (80-100) | 2 (40-60) | 4 (80-100) | 4 (80-100) | 2 (40-60) | 0 (0-10) | 4 (80-100) | 4 (80-100) | 4 (80-100) | 4 (80-100)
4 | COc1ccc(Cl)c(Oc2nsnc(Cl)c2=O)c1 [Compound 51, 3-chloro-5-[(2-chloro-5-methoxy)phenoxy]-4H--1,2,6-thiadiazin-4-one] | 4 (80-100) | 4 (80-100) | 0 (0-10) | 0 (0-10) | 0 (0-10) | 0 (0-10) | 0 (0-10) | 0 (0-10) | 4 (80-100) | 3 (60-80) | 0 (0-10) | 0 (0-10)
5 | O=c1c(Cl)nsnc1Oc1ccc(O)cc1 [Compound 35, 3-chloro-5-(4-hydroxyphenoxy)-4H-1,2,6-thiadiazin-4-one] | 4 (80-100) | 4 (80-100) | 2 (40-60) | 1 (10-40) | 0 (0-10) | 0 (0-10) | 0 (0-10) | 0 (0-10) | 4 (80-100) | 4 (80-100) | 4 (80-100) | 3 (60-80)
6 | Cc1cccc(Oc2nsnc(Cl)c2=O)c1 [Compound 21, 3-chloro-5-(3-methylphenoxy)-4H--1,2,6-thiadiazin-4-one] | 4 (80-100) | 3 (60-80) | 2 (40-60) | 0 (0-10) | 4 (80-100) | 2 (40-60) | 0 (0-10) | 0 (0-10) | 4 (80-100) | 3 (60-80) | 0 (0-10) | 0 (0-10)
7 | O=c1c(Cl)nsnc1Oc1ccc(Cl)cc1 [Compound 12, 3-chloro-5-(4-chlorophenoxy)-4H--1,2,6-thiadiazin-4-one] | 4 (80-100) | 4 (80-100) | 2 (40-60) | 0 (0-10) | 1 (10-40) | 1 (10-40) | 0 (0-10) | 0 (0-10) | 0 (0-10) | 2 (40-60) | 0 (0-10) | 0 (0-10)
8 | CC(=O)c1cccc(Oc2nsnc(Cl)c2=O)c1 [Compound 48, 3-(3-acetylphenoxy)-5-chloro-4H--1,2,6-thiadiazin-4-one] | 4 (80-100) | 4 (80-100) | 2 (40-60) | 2 (40-60) | 0 (0-10) | 0 (0-10) | 0 (0-10) | 0 (0-10) | 4 (80-100) | 4 (80-100) | 0 (0-10) | 0 (0-10)
9 | CC(=O)c1ccccc1Oc1nsnc(Cl)c1=O [Compound 49, 3-(2-acetylphenoxy)-5-chloro-4H--1,2,6-thiadiazin-4-one] | 4 (80-100) | 4 (80-100) | 2 (40-60) | 2 (40-60) | 4 (80-100) | 1 (10-40) | 0 (0-10) | 0 (0-10) | 1 (10-40) | 1 (10-40) | 0 (0-10) | 0 (0-10)
10 | Cc1ccc(Oc2nsnc(Cl)c2=O)c(Br)c1 [Compound 57, 3-[(2-bromo-4-methyl)-phenoxy]-5-chloro-4H--1,2,6-thiadiazin-4-one] | 4 (80-100) | 0 (0-10) | 0 (0-10) | 0 (0-10) | 0 (0-10) | 0 (0-10) | 0 (0-10) | 0 (0-10) | 3 (60-80) | 1 (10-40) | 0 (0-10) | 0 (0-10)
11 | Cc1cc(Oc2nsnc(Cl)c2=O)cc(C)c1Br [Compound 60, 3-[(4-bromo-3,5-dimethyl)-phenoxy]-5-chloro-4H--1,2,6-thiadiazin-4-one] | 2 (40-60) | 1 (10-40) | 1 (10-40) | 0 (0-10) | 0 (0-10) | 0 (0-10) | 0 (0-10) | 0 (0-10) | 4 (80-100) | 3 (60-80) | 3 (60-80) | 3 (60-80)
12 | Nc1ccc(Oc2nsnc(Cl)c2=O)cc1 [Compound 26, 5-(4-aminophenoxy)-3-chloro-4H--1,2,6-thiadiazin-4-one] | 4 (80-100) | 4 (80-100) | 4 (80-100) | 4 (80-100) | 2 (40-60) | 3 (60-80) | 4 (80-100) | 2 (40-60) | 0 (0-10) | 0 (0-10) | 0 (0-10) | 0 (0-10)
13 | O=c1c(Cl)nsnc1Oc1c(Cl)c(Cl)c(Cl)c(Cl)c1Cl [Compound 31, 3-chloro-5-(pentachlorophenoxy)-4H--1,2,6-thiadiazine-4-one] | 0 (0-10) | 0 (0-10) | 1 (10-40) | 0 (0-10) | 0 (0-10) | 0 (0-10) | 0 (0-10) | 0 (0-10) | 1 (10-40) | 1 (10-40) | 1 (10-40) | 0 (0-10)
14 | O=c1c(Cl)nsnc1Oc1ccc(Br)cc1 [Compound 15, 3-chloro-5-(4-bromophenoxy)-4H--1,2,6-thiadiazin-4-one] | 4 (80-100) | 1 (10-40) | 0 (0-10) | 0 (0-10) | 1 (10-40) | 0 (0-10) | 0 (0-10) | 0 (0-10) | 4 (80-100) | 1 (10-40) | 0 (0-10) | 0 (0-10)
